The text below walks through data of ChEMBL document CHEMBL5335853, “Acremosides A-G, Sugar Alcohol-Conjugated Acyclic Sesquiterpenes from a Sponge-Derived Acremonium Species” (J Nat Prod, 2024).

Data set [1] deals with Staphylococcus epidermidis. The experiment in a line: Antimicrobial activity against Staphylococcus epidermidis ATCC 12228 assessed as inhibition of microbial growth by CLSI protocol based two-fold serial broth microdilution method. The class given is functional.
For the next data set, the system named is Klebsiella pneumoniae. Kind of data set: Antimicrobial activity against Klebsiella pneumoniae ATCC 700603 assessed as inhibition of microbial growth by CLSI protocol based two-fold serial broth microdilution method. The class given is functional. For orientation: Broth dilution looks for growth in wells or tubes with falling amounts of substance.
Data set [2] in a line: Selectivity index, ratio of CC50 for cytotoxicity against human Huh7.5 cells to EC50 for antiviral activity against HCV infected in human Huh7.5 cells. The class given is toxicity, cell-based. The note with it: read-out: Ratio CC50/EC50.
In a further data set the test system is Bacillus subtilis. Kind of data set: Antimicrobial activity against Bacillus subtilis ATCC 6633 assessed as inhibition of microbial growth by CLSI protocol based two-fold serial broth microdilution method. The class given is functional.
For the next data set, the system named is Staphylococcus aureus. The experiment in a line: Antimicrobial activity against Staphylococcus aureus ATCC 29213 assessed as inhibition of microbial growth by CLSI protocol based two-fold serial broth microdilution method. The class given is functional.
The next data set deals with Escherichia coli. Kind of data set: Antimicrobial activity against Escherichia coli ATCC 25922 assessed as inhibition of microbial growth by CLSI protocol based two-fold serial broth microdilution method. The class given is functional.
For another data set, the system named is Pseudomonas aeruginosa. Kind of data set: Antimicrobial activity against Pseudomonas aeruginosa ATCC 27853 assessed as inhibition of microbial growth by CLSI protocol based two-fold serial broth microdilution method. In kind it is functional.
The nature of data set [3]: Cytotoxicity against human Huh7.5 cells assessed as reduction in cell viability by CCK-8 assay. In kind it is toxicity, cell-based, Huh-7.5.
For a further data set, the system named is Edwardsiella tarda. The experiment in a line: Antimicrobial activity against Edwardsiella tarda ATCC 15947 assessed as inhibition of microbial growth by CLSI protocol based two-fold serial broth microdilution method. The class given is functional.
The next data set has as its system Edwardsiella ictaluri. The experiment in a line: Antimicrobial activity against Edwardsiella ictaluri ATCC 33202 assessed as inhibition of microbial growth by CLSI protocol based two-fold serial broth microdilution method. In kind it is functional.
A further data set relates to Hepatitis C virus. Kind of data set: Antiviral activity against HCV infected in human Huh-7.5 cells assessed as inhibition of viral replication incubated for 72 hrs by qRT-PCR analysis. The class given is functional, organism-based, Hepacivirus hominis. The note with it: Huh7.5, 72 h. For orientation: Real-time PCR tracks product formation cycle by cycle.

The MIC is the lowest concentration that inhibits growth of the organism. As a reminder, the CC50 is the concentration that lowers cell viability or growth by half. A word on the EC50: it is the concentration needed to bring the measured effect to its halfway point. For the compound `CC(C)=C[C@@H]1C[C@](C)(O)[C@@H](C[C@@H](OC(=O)Cc2ccccc2)/C(C)=C/CO[C@@H]([C@H](O)[C@H](O)CO)[C@H](O)CO)O1`, the MIC (in [1]; with Klebsiella pneumoniae; with Bacillus subtilis; with Staphylococcus aureus; in the data set with Escherichia coli; in the data set with Pseudomonas aeruginosa) was ≥ 128 µg/mL in each case. For the same compound, the MIC in the data set on Edwardsiella tarda and in the data set on Edwardsiella ictaluri was ≥ 128 µg/mL throughout. Besides, the selectivity ratio in data set [2] was > 23. For the same compound, the CC50 in data set [3] was > 200 µM. In addition, the 50% effective concentration (EC50) in the data set with Hepatitis C virus was 8.8 µM.
Consider `CC(C)=C[C@H]1C[C@](C)(O)[C@@H](C[C@@H](OC(=O)Cc2ccccc2)/C(C)=C/CO[C@@H]([C@H](O)[C@H](O)CO)[C@H](O)CO)O1`, for which the MIC (in data set [1]; with Klebsiella pneumoniae; in the data set with Bacillus subtilis; in the data set with Staphylococcus aureus; in the data set on Escherichia coli; in the data set with Pseudomonas aeruginosa) was ≥ 128 µg/mL each time. Besides, the MIC in the data set on Edwardsiella tarda and with Edwardsiella ictaluri was ≥ 128 µg/mL each time. Besides, the selectivity ratio in [2] was > 12. Moreover, the CC50 in data set [3] is > 200 µM. The EC50 in the data set on Hepatitis C virus was determined as 16 µM.
In the case of `COC[C@@H](O)[C@@H](OC/C=C(\C)[C@@H](C[C@@H](O)[C@@](C)(O)CCC=C(C)C)OC(=O)Cc1ccccc1)[C@H](O)[C@H](O)CO`, the minimal inhibitory concentration (MIC) (in data set [1]; in the data set on Klebsiella pneumoniae; in the data set on Bacillus subtilis; in the data set with Staphylococcus aureus; in the data set with Escherichia coli; with Pseudomonas aeruginosa) was ≥ 128 µg/mL throughout. Moreover, the MIC with Edwardsiella tarda and in the data set with Edwardsiella ictaluri was ≥ 128 µg/mL each time. Further, the selectivity ratio in [2] is > 4. In data set [3], the 50% cytotoxic concentration (CC50) was determined as 55 µM. Also, the EC50 with Hepatitis C virus came out at 14 µM.
Take `CC(C)=CCC[C@](C)(O)[C@H](O)C[C@@H](OC(=O)Cc1ccccc1)/C(C)=C/CO[C@@H]([C@H](O)[C@H](O)CO)[C@H](O)CO`: the MIC (in data set [1]; in the data set on Klebsiella pneumoniae; with Bacillus subtilis; with Staphylococcus aureus; with Escherichia coli; with Pseudomonas aeruginosa) was ≥ 128 µg/mL each time. The MIC in the data set with Edwardsiella tarda and with Edwardsiella ictaluri was ≥ 128 µg/mL each time. The selectivity ratio in data set [2] is > 42. For the same compound, the CC50 in data set [3] is > 200 µM. In the data set on Hepatitis C virus, the EC50 was determined as 4.8 µM.
Turning to `COC[C@@H](O)[C@@H](OC/C=C(\C)[C@@H](C[C@H]1O[C@H](C=C(C)C)C[C@]1(C)O)OC(=O)Cc1ccccc1)[C@H](O)[C@H](O)CO`, the MIC (in data set [1]; in the data set with Klebsiella pneumoniae; in the data set on Bacillus subtilis; in the data set with Staphylococcus aureus; in the data set with Escherichia coli; with Pseudomonas aeruginosa) was ≥ 128 µg/mL throughout. Moreover, the MIC in the data set on Edwardsiella tarda and with Edwardsiella ictaluri was ≥ 128 µg/mL each time. Also, in [2], the selectivity ratio is > 17. In data set [3], the CC50 was > 200 µM. Moreover, in the data set on Hepatitis C virus, the EC50 turned out to be 12 µM.
Consider `CC(C)=CCC[C@](C)(O)[C@H](O)C[C@@H](OC(=O)Cc1ccccc1)/C(C)=C/CO[C@@H]([C@H](O)[C@@H](C)O)[C@H](O)CO`, for which the MIC (in [1]; with Klebsiella pneumoniae; in the data set with Bacillus subtilis; with Staphylococcus aureus; in the data set on Escherichia coli; in the data set with Pseudomonas aeruginosa) was ≥ 128 µg/mL each time. Further, the MIC in the data set on Edwardsiella tarda and in the data set with Edwardsiella ictaluri was ≥ 128 µg/mL each time. Moreover, in [2], the selectivity ratio is > 25. In addition, the CC50 in data set [3] is > 200 µM. The 50% effective concentration (EC50) with Hepatitis C virus came to 7.9 µM.
For the compound `CC(C)=CCC[C@](C)(O)[C@H](O)C[C@@H](OC(=O)Cc1ccccc1)/C(C)=C/COC([C@H](O)CO)[C@H](O)CO`, the MIC (in [1]; in the data set on Klebsiella pneumoniae; in the data set with Bacillus subtilis; in the data set with Staphylococcus aureus; in the data set on Escherichia coli; in the data set with Pseudomonas aeruginosa) was ≥ 128 µg/mL in each case. The MIC with Edwardsiella tarda and in the data set on Edwardsiella ictaluri was ≥ 128 µg/mL each time. In addition, the selectivity ratio in data set [2] was > 31. Besides, in [3], the CC50 was > 200 µM. Besides, the EC50 in the data set with Hepatitis C virus was 6.5 µM.
For `CC(C)OC(=O)[C@H](C)N[P@](=O)(OC[C@H]1O[C@@H](n2ccc(=O)[nH]c2=O)[C@](C)(F)[C@@H]1O)Oc1ccccc1` [SOFOSBUVIR], the selectivity ratio in data set [2] was > 2220. Further, the CC50 in [3] is > 200 µM. Moreover, in the data set with Hepatitis C virus, the EC50 was 0.09 µM.
